According to publication PMC11345830, “Exploration of Hydrazide-Based HDAC8 PROTACs for the Treatment of Hematological Malignancies and Solid Tumors” (Journal of Medicinal Chemistry, 2024):
Read-outs that look alike come from different tables or passages of the source.

Key:
HDAC8 [1] = target: T1, HDAC8 (Homo sapiens, UniProt Q9BY41); set-up: endogenous in cells; host or cells: A549; method as in PMID 36516047; settings: A549 cells; cited from earlier work
T1 sequence (Q9BY41 1-377): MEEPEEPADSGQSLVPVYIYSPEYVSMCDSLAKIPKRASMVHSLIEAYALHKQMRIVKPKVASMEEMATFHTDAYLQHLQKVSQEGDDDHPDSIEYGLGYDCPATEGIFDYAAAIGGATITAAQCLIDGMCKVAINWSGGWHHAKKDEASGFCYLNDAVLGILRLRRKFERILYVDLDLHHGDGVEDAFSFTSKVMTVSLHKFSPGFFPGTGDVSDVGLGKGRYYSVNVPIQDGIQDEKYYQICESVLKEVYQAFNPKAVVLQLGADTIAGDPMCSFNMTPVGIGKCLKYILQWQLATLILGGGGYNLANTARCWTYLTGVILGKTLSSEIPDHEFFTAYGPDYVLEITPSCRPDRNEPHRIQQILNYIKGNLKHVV

Jurkat cells = test: Cell viability MTS assay, Jurkat; format: cell-based; settings: Homo sapiens, Jurkat; 72 h, MTS assay; read-out: IC50 antiproliferative, Jurkat
Experimental: (§1) MTS assay was used to measure the cell viability. For single treatment, Jurkat, THP-1 and HEL (8000 cells/well), HCT116 and A549 (2000 cells/well) were seeded in 96-well plates in 100 μL complete medium. After overnight incubation, 50 μL of media containing various concentrations of compounds or the vehicle were added to each well. For cotreatment, cells were seeded in 96-well plates in 50 μL complete medium. After overnight incubation, 50 μL of Z-VAD-FMK, Nec-1, Fer-1, CQ, and other indicated compounds were added to each well. One hour later, 50 μL of media containing various concentrations of compounds were added to each well. After 72 h of treatment, 20 μL of CellTiter 96 AQueous One Solution reagent (Promega, Madison, USA) was added to each well according to manufacturer’s protocol. Plates were incubated at 37 °C for 1–2 h. The absorbance was determined at a wavelength of 490 nm using a Synergy H1 plate reader (Biotek, Winooski, VT, USA).

THP-1 cells = test: Cell viability MTS assay, THP-1; format: cell-based; settings: Homo sapiens, 72 h, read-out: IC50 antiproliferative, THP-1
Experimental: as §1

HCT116 cells = test: Cell viability MTS assay, HCT116; format: cell-based; settings: Homo sapiens, HCT-116, 72 h, read-out: IC50 antiproliferative, HCT116
Experimental: as §1

A549 cells = test: Cell viability MTS assay, A549; format: cell-based; settings: Homo sapiens, 72 h, read-out: IC50 antiproliferative, A549
Experimental: as §1

HDAC6 [2] = target: T2, HDAC6 (Homo sapiens, UniProt Q9UBN7); set-up: endogenous in cells; settings: MDA-MB-231 cells; cited from earlier work
T2 sequence (Q9UBN7 1-1215): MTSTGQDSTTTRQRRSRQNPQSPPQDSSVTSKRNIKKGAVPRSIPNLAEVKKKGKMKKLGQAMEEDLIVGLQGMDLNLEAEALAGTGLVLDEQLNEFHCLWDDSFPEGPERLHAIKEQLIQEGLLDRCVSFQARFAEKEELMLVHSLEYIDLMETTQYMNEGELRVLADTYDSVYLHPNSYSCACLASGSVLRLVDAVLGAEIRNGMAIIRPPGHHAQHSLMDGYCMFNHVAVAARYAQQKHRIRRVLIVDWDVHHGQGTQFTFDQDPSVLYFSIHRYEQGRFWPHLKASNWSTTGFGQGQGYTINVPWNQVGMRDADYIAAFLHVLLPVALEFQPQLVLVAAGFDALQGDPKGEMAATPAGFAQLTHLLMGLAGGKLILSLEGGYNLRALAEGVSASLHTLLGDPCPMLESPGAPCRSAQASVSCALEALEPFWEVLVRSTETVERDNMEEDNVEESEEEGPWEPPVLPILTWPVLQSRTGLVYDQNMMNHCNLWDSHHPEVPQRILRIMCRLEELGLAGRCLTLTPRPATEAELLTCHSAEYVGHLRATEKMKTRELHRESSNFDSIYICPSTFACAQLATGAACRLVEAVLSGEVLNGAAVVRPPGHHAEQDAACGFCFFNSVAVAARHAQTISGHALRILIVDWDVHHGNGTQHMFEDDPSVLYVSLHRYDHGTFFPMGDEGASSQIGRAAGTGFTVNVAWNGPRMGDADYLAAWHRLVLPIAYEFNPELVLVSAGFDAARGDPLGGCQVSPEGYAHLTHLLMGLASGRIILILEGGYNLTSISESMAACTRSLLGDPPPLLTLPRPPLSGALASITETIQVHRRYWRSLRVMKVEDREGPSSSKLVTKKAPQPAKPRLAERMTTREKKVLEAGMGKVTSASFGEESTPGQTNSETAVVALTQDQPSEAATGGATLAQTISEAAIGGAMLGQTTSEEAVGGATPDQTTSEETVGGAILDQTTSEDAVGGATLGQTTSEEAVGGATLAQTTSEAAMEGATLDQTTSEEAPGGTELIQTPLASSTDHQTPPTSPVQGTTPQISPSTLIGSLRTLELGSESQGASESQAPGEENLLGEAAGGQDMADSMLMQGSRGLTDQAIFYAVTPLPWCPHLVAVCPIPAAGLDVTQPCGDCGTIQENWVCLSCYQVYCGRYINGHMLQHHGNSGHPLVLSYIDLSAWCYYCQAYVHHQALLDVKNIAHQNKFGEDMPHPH

HDAC6 [3] = target: T2, HDAC6; set-up: endogenous in cells; host or cells: Jurkat; settings: Jurkat cells; cited from earlier work
acetyl-SMC3 (Ac-SMC3) = test: Ac-SMC3 level in Jurkat cells, Western blot; format: cell-based; settings: 1 μM, 6 h
HDAC1 = HDAC1 (Homo sapiens, UniProt Q13547); test: In vitro HDAC1 deacetylase inhibition assay; settings: read-out: HDAC1 IC50; recombinant enzyme, Boc-Lys(Ac)-AMC
Sequence of HDAC1 (Q13547 whole entry): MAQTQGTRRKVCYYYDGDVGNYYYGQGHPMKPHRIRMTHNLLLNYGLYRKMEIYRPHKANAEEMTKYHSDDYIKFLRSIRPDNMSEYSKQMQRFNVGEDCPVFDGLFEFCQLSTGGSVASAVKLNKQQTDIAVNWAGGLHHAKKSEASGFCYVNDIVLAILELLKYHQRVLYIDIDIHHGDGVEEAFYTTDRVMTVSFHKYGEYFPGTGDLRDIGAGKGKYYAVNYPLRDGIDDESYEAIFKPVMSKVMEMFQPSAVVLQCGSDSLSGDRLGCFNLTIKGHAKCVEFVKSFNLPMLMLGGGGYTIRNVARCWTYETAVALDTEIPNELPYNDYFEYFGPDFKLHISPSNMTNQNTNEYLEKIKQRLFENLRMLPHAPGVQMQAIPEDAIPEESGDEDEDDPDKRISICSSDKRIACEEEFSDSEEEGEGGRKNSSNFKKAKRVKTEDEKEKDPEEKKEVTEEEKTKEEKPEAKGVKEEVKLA
Experimental: (§2) After a following incubation at 37 °C for 20 min, the fluorescence was measured on a Synergy H1 Platereader (BioTek, USA) with an excitation wavelength of 370 nm and an emission wavelength of 460 nm. Nonlinear regression was used for the determination of the IC50 of each compound.

HDAC2 = HDAC2 (Homo sapiens, UniProt Q92769); test: In vitro HDAC2 deacetylase inhibition assay; settings: read-out: HDAC2 IC50; recombinant enzyme, Boc-Lys(Ac)-AMC
Sequence of HDAC2 (Q92769 whole entry): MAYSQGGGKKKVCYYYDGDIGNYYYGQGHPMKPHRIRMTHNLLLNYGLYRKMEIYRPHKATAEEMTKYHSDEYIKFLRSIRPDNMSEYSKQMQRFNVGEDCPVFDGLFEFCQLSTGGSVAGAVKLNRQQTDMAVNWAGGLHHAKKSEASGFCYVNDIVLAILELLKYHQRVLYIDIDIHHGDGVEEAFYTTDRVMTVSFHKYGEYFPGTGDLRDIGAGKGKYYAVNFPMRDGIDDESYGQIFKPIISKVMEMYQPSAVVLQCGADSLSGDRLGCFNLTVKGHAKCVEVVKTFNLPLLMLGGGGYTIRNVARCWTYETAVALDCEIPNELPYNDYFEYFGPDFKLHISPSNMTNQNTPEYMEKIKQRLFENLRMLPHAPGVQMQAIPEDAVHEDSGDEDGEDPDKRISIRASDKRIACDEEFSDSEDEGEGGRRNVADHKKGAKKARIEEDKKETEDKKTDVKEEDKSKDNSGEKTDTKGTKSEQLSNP
Experimental: as §2

HDAC3/NcoR2 = HDAC3/NcoR2 (Homo sapiens, UniProt O15379); test: In vitro HDAC3 deacetylase inhibition assay; settings: read-out: HDAC3 IC50; recombinant enzyme, Boc-Lys(Ac)-AMC
Sequence of HDAC3/NcoR2 (O15379 whole entry): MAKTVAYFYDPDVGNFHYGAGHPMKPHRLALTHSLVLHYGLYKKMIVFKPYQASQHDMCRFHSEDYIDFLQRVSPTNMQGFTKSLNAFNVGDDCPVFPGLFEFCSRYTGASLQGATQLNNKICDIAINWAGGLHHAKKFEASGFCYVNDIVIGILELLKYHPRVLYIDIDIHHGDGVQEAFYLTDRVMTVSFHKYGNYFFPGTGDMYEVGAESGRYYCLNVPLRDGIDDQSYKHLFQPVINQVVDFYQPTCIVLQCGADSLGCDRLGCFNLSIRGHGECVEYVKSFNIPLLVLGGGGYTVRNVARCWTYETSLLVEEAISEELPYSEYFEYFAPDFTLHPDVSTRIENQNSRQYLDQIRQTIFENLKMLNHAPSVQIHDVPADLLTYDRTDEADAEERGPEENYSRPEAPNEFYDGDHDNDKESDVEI
Sequence of HDAC3/NcoR2 (Q9Y618 395-489 partner limits assumed): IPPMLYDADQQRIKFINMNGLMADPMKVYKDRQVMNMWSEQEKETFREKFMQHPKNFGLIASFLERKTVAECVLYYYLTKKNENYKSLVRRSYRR
Experimental: as §2

HDAC8 [4] = target: T1, HDAC8; test: In vitro HDAC8 deacetylase inhibition assay; settings: read-out: HDAC8 IC50; recombinant enzyme, Boc-Lys(TFA)-AMC
Experimental: as §2

IC50 (HDAC1)	IC50 (HDAC2)	IC50 (HDAC3/NcoR2)	IC50 (HDAC8 [4])	SMILES	DC50 (HDAC8 [1])	IC50 (Jurkat cells)	IC50 (THP-1 cells)	IC50 (HCT116 cells)	IC50 (A549 cells)	DC50 (HDAC6 [2])	DC50 (HDAC6 [3])	level of Ac-SMC3 at 1 μM (in words) (acetyl-SMC3 (Ac-SMC3))
				O=C1CCC(N2C(=O)c3cccc(NCc4cn(CCOCCOc5ccc(Cn6ccc7ccc(C(=O)NO)cc76)cc5)nn4)c3C2=O)C(=O)N1 (stereo not shown) [PROTAC 5]	0.58 µM							
				COc1ccc(C(=O)NO)cc1OCc1ccc(C(=O)NCCCCCCCCNc2cccc3c2C(=O)N(C2CCC(=O)NC2=O)C3=O)cc1 (stereo not shown) [PROTAC 4]		4 ± 0.8 µM	10.8 ± 0.9 µM	8 ± 0.5 µM	15.2 ± 3.3 µM	0.038 µM	0.0785 µM	
0.94 ± 0.05 µM	8 ± 1 µM	9.5 ± 0.7 µM	0.6 ± 0.08 µM	CCCCCCNNC(=O)c1ccc(CNC(C)=O)cc1 [Compound 6, N-(4-(2-Hexylhydrazine-1-carbonyl)benzyl)acetamide]		> 33.3 µM	> 33.3 µM	> 33.3 µM	> 33.3 µM			neither 1 μM of pan-HDAC inhibitor SAHA nor 1 μM of HDAC8 inhibitor 6 increased the level of Ac-SMC3
